Each block holds one compound with its values, some of them ahead of it. Active and inactive are the calls of the source. No cut-off for these calls is given here.
Key:
[1] = molecular target: T1, Prostaglandin D2 receptor 2 (Homo sapiens, UniProt Q9Y5Y4); assay: Displacement of [3HPGD2 from human CRTH2 receptor expressed in CHO cell membrane after 90 mins by scintillation proximity assay; format: cell membranes
T1 sequence (Q9Y5Y4 whole entry): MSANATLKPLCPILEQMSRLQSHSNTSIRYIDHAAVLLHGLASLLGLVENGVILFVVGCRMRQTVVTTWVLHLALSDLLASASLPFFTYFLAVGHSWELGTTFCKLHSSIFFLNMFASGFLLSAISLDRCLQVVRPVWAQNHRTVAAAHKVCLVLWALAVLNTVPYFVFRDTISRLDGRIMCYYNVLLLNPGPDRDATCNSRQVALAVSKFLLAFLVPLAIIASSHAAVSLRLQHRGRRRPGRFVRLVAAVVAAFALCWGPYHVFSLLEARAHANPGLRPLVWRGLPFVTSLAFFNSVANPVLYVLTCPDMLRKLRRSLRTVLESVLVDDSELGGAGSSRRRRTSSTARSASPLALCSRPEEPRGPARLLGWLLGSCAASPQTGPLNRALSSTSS

[2] = molecular target: T2, Prostaglandin D2 receptor 2 (Homo sapiens) (UniProt Q9Y5Y4); assay: Agonist activity at human CRTH2 receptor expressed in CHO cell membrane assessed as induction of [35S]GTPgammaS binding at 20 uM after 30 mins by microbeta scintillation counting relative to PGD2; format: functional, cell membranes
T2 sequence (whole entry): T1 sequence (Q9Y5Y4 whole entry)

[3] = molecular target: T1, Prostaglandin D2 receptor 2; assay: Antagonist activity at human CRTH2 receptor expressed in CHO cell membrane assessed as inhibition of PGD2-induced [35S]GTPgammaS binding after 30 mins by microbeta scintillation counting; format: functional, cell membranes
[4] = molecular target: T2, Prostaglandin D2 receptor 2 (Homo sapiens); assay: Antagonist activity at human CRTH2 receptor expressed in CHO cell membrane assessed as inhibition of PGD2-induced [35S]GTPgammaS binding at 2 uM after 30 mins by microbeta scintillation counting relative to control; format: functional, cell membranes
[5] = Intrinsic clearance in human liver microsomes assessed per mg protein at 1 uM up to 45 mins by LC/MS analysis; format: ADME, Microsome; settings: read-out: CLH
[6] = Intrinsic clearance in rat liver microsomes assessed per mg protein at 1 uM up to 45 mins by LC/MS analysis; format: ADME, Microsome; settings: read-out: CLH
Cytochrome P450 2C8 = molecular target: T3, Cytochrome P450 2C8 (Homo sapiens, UniProt P10632); assay: Inhibition of human recombinant CYP2C8 incubated for 15 mins prior to substrate addition measured after 30 mins by spectrophotometry; format: ADME
T3 sequence (P10632 whole entry): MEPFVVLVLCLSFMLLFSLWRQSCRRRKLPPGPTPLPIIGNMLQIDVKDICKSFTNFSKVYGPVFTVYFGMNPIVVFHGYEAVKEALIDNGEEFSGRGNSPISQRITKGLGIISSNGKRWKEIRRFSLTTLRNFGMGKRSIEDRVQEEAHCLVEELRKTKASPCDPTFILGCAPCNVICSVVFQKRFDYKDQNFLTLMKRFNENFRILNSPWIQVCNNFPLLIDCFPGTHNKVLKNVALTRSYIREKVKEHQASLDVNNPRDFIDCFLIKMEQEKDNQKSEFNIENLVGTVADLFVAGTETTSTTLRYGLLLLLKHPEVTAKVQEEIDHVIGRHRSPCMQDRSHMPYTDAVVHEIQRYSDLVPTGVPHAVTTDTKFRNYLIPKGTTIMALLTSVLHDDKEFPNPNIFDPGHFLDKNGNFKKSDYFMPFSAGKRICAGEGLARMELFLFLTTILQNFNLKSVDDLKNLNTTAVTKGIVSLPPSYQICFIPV

Cytochrome P450 2C9 = Cytochrome P450 2C9 (Homo sapiens, UniProt P11712); assay: Inhibition of human recombinant CYP2C9 incubated for 15 mins prior to substrate addition measured after 30 mins by spectrophotometry; format: ADME
Cytochrome P450 2C9, sequence (P11712 whole entry): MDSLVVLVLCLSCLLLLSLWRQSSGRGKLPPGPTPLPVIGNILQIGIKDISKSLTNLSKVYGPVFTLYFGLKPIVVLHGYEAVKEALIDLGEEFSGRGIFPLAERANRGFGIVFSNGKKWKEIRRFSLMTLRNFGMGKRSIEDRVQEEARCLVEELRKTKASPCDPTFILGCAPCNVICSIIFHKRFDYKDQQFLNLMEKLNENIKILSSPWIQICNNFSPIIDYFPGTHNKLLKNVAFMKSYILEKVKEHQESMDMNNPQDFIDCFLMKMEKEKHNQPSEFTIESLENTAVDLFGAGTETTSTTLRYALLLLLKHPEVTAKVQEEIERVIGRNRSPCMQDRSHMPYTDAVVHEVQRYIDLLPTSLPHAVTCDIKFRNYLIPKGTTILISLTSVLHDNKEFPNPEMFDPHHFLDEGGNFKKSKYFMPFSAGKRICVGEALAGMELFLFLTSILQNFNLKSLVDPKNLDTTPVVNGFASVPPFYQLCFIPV

Cytochrome P450 2C19 = Cytochrome P450 2C19 (Homo sapiens, UniProt P33261); assay: Inhibition of human recombinant CYP2C19 incubated for 15 mins prior to substrate addition measured after 30 mins by spectrophotometry; format: ADME
Cytochrome P450 2C19, sequence (P33261 whole entry): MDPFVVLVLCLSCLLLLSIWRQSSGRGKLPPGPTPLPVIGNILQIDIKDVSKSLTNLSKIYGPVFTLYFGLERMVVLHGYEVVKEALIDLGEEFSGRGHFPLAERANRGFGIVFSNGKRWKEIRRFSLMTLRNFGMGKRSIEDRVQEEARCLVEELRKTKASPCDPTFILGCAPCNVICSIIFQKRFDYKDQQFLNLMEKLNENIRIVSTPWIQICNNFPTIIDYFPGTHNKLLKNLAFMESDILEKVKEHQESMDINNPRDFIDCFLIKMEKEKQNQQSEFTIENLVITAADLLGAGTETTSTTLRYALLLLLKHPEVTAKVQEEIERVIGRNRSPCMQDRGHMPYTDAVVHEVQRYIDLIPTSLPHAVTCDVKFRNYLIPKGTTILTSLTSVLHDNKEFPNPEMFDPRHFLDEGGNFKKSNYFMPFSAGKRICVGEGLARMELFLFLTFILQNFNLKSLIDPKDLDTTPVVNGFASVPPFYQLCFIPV

Ki [1]: 0.9 nM
Emax [2]: -10%
IC50 [3]: 3.7 nM
inhibition [4]: 94%
microsomal CLint at 1 µM [5]: 28 µL/min/mg
microsomal CLint at 1 µM [6]: 20 µL/min/mg
IC50 (Cytochrome P450 2C8): 50 nM
IC50 (Cytochrome P450 2C9): 290 nM
IC50 (Cytochrome P450 2C19): 170 nM
Structure (SMILES): CS(=O)(=O)c1ccc(CN(C(=O)Cc2ccccc2)c2cc(F)cc(-c3nnn[nH]3)c2)cc1

Ki [1]: 22 nM
Structure (SMILES): CCC(=O)N(Cc1ccc(O)cc1)c1cc(F)cc(-c2nnn[nH]2)c1

Ki [1]: 3.1 nM
microsomal CLint at 1 µM [5]: < 10 µL/min/mg
microsomal CLint at 1 µM [6]: < 10 µL/min/mg
IC50 (Cytochrome P450 2C8): 54 nM
IC50 (Cytochrome P450 2C9): > 20000 nM
IC50 (Cytochrome P450 2C19): 150 nM
Structure (SMILES): CCC(=O)N(Cc1ccc(S(C)(=O)=O)cc1)c1cc(F)cc(-c2nnn[nH]2)c1

Ki [1]: 1200 nM
Structure (SMILES): CCC(=O)N(Cc1ccc(F)cc1)c1cccc(-c2nnn[nH]2)c1

Ki [1]: 3.2 nM
Emax [2]: inactive
IC50 [3]: 46 nM
inhibition [4]: 85%
microsomal CLint at 1 µM [5]: 17 µL/min/mg
microsomal CLint at 1 µM [6]: 17 µL/min/mg
IC50 (Cytochrome P450 2C8): 79 nM
IC50 (Cytochrome P450 2C9): 1700 nM
IC50 (Cytochrome P450 2C19): 7500 nM
Structure (SMILES): CC(C)CC(=O)N(Cc1ccc(S(C)(=O)=O)cc1)c1cc(F)cc(-c2nnn[nH]2)c1

Ki [1]: 220 nM
Structure (SMILES): CCC(=O)N(Cc1ccc(OC)cc1)c1cccc(-c2nnn[nH]2)c1

Ki [1]: 620 nM
Structure (SMILES): CCCCC(=O)N(Cc1cccs1)c1cccc(-c2nnn[nH]2)c1

Ki [1]: 10 nM
Structure (SMILES): C#Cc1cccc(CN(C(=O)CCCC)c2cc(-c3nnn[nH]3)ccc2F)c1

Ki [1]: 5.6 nM
Structure (SMILES): CC(C)CC(=O)N(Cc1ccc2c(c1)OCCO2)c1cc(-c2nnn[nH]2)ccc1F

Ki [1]: 44 nM
Structure (SMILES): CCCCC(=O)N(Cc1cccc(OC)c1)c1cccc(-c2nnn[nH]2)c1

Ki [1]: 12 nM
Structure (SMILES): CCCC(=O)N(Cc1ccc2c(c1)OCCO2)c1cccc(-c2nnn[nH]2)c1

Ki [1]: 1400 nM
Structure (SMILES): CCC(=O)N(Cc1cccc(F)c1)c1cccc(-c2nnn[nH]2)c1

Ki [1]: 330 nM
Structure (SMILES): CCCCC(=O)N(Cc1ccc2cnccc2c1)c1cccc(-c2nnn[nH]2)c1

Ki [1]: 3.3 nM
Structure (SMILES): CCCCC(=O)N(Cc1ccc2c(c1)OCCO2)c1cc(-c2nnn[nH]2)ccc1F

Ki [1]: 6.4 nM
microsomal CLint at 1 µM [5]: 1700 µL/min/mg
microsomal CLint at 1 µM [6]: 30 µL/min/mg
IC50 (Cytochrome P450 2C8): 470 nM
IC50 (Cytochrome P450 2C9): 340 nM
IC50 (Cytochrome P450 2C19): 900 nM
Structure (SMILES): CCC(=O)N(Cc1cccc(OC(C)C)c1)c1cc(F)cc(-c2nnn[nH]2)c1

Ki [1]: 580 nM
Structure (SMILES): CCC(=O)N(Cc1cccc(C)c1)c1cccc(-c2nnn[nH]2)c1

Ki [1]: 2.5 nM
Structure (SMILES): Cc1ccc(CCC(=O)N(Cc2ccc(S(C)(=O)=O)cc2)c2cc(F)cc(-c3nnn[nH]3)c2)cc1

Ki [1]: 39 nM
Structure (SMILES): CCCCC(=O)N(Cc1ccc2ccccc2c1)c1cccc(-c2nnn[nH]2)c1

Ki [1]: 4.9 nM
Structure (SMILES): CCCC(=O)N(Cc1ccc2c(c1)OCCO2)c1cc(-c2nnn[nH]2)ccc1F

Ki [1]: 17 nM
Structure (SMILES): CC(C)C(=O)N(Cc1ccc(S(C)(=O)=O)cc1)c1cc(F)cc(-c2nnn[nH]2)c1

Ki [1]: 3 nM
Structure (SMILES): CCCCC(=O)N(Cc1ccc(OC)cc1)c1cc(F)cc(-c2nnn[nH]2)c1

Ki [1]: 45 nM
Structure (SMILES): CCCCC(=O)N(Cc1ccc2c(c1)OCCO2)c1cc(-c2nnn[nH]2)c(F)cc1F

Ki [1]: 3.6 nM
Emax [2]: -10%
IC50 [3]: 10 nM
inhibition [4]: 110%
Structure (SMILES): CCCCC(=O)N(Cc1ccc(OC)cc1)c1cc(Cl)cc(-c2nnn[nH]2)c1

Ki [1]: 18 nM
Structure (SMILES): CCCCC(=O)N(Cc1ccc2ccccc2c1)c1cc(-c2nnn[nH]2)ccc1F

Ki [1]: 7.1 nM
Structure (SMILES): CCCCC(=O)N(Cc1cc2ccccc2o1)c1cc(-c2nnn[nH]2)ccc1F

Ki [1]: 2 nM
Emax [2]: -15%
IC50 [3]: 2.8 nM
inhibition [4]: 102%
Structure (SMILES): CCCCC(=O)N(Cc1ccc2c(c1)OCCO2)c1cc(F)cc(-c2nnn[nH]2)c1

Ki [1]: 1800 nM
Structure (SMILES): CCC(=O)N(Cc1ccccc1)c1cccc(-c2nnn[nH]2)c1

Ki [1]: 56 nM
Structure (SMILES): CCC(=O)N(Cc1ccc2ccccc2n1)c1cc(F)cc(-c2nnn[nH]2)c1

Ki [1]: 360 nM
Structure (SMILES): CCC(=O)N(Cc1cccc(OC)c1)c1cccc(-c2nnn[nH]2)c1

Ki [1]: 69 nM
Structure (SMILES): CCC(=O)N(Cc1ccc(S(C)(=O)=O)cc1)c1cccc(-c2nnn[nH]2)c1

Ki [1]: 3 nM
Structure (SMILES): CCCCC(=O)N(Cc1cccc(OC)c1)c1cc(F)cc(-c2nnn[nH]2)c1

Ki [1]: 950 nM
Structure (SMILES): CCC(=O)N(Cc1ccccc1F)c1cccc(-c2nnn[nH]2)c1

Ki [1]: 4300 nM
Structure (SMILES): CCCCC(=O)N(Cc1ccc2c(c1)OCCO2)c1cccc(CC(=O)O)c1

Ki [1]: 11 nM
Structure (SMILES): CCC(=O)N(Cc1ccc2c(c1)OCCO2)c1cc(-c2nnn[nH]2)ccc1F

Ki [1]: 8000 nM
Structure (SMILES): CCCCC(=O)N(Cc1cccc(OC)c1)c1cccc(C(=O)O)c1

Ki [1]: 42 nM
Structure (SMILES): CCC(=O)N(Cc1ccc2c(c1)OCCO2)c1cccc(-c2nnn[nH]2)c1

Ki [1]: 28 nM
Structure (SMILES): CS(=O)(=O)c1ccc(CN(C(=O)C2CCOCC2)c2cc(F)cc(-c3nnn[nH]3)c2)cc1

Ki [1]: 8.2 nM
Emax [2]: -11%
IC50 [3]: 64 nM
inhibition [4]: 107%
Structure (SMILES): CCC(=O)N(Cc1cccc(OC)c1)c1cc(F)cc(-c2nnn[nH]2)c1

Ki [1]: 130 nM
Structure (SMILES): CCC(=O)N(Cc1ccc2c(c1)OCO2)c1cccc(-c2nnn[nH]2)c1

Ki [1]: 17 nM
Structure (SMILES): CS(=O)(=O)c1ccc(CN(C(=O)c2ccncc2)c2cc(F)cc(-c3nnn[nH]3)c2)cc1

Ki [1]: 5.4 nM
Emax [2]: 7%
IC50 [3]: 57 nM
inhibition [4]: 80%
microsomal CLint at 1 µM [5]: 92 µL/min/mg
microsomal CLint at 1 µM [6]: 40 µL/min/mg
IC50 (Cytochrome P450 2C8): 220 nM
IC50 (Cytochrome P450 2C9): 7400 nM
IC50 (Cytochrome P450 2C19): 12000 nM
Structure (SMILES): CS(=O)(=O)c1ccc(CN(C(=O)C2CCCC2)c2cc(F)cc(-c3nnn[nH]3)c2)cc1

Ki [1]: 2.2 nM
Structure (SMILES): CS(=O)(=O)c1ccc(CN(C(=O)c2ccccc2)c2cc(F)cc(-c3nnn[nH]3)c2)cc1

Ki [1]: 50 nM
microsomal CLint at 1 µM [5]: > 1000 µL/min/mg
microsomal CLint at 1 µM [6]: 43 µL/min/mg
IC50 (Cytochrome P450 2C8): 320 nM
IC50 (Cytochrome P450 2C9): 840 nM
IC50 (Cytochrome P450 2C19): 260 nM
Structure (SMILES): CCCCC(=O)N(Cc1ccc(OC)cc1)c1cccc(-c2nnn[nH]2)c1

Emax [2]: -17%
inhibition [4]: 106%
microsomal CLint at 1 µM [5]: 55 µL/min/mg
microsomal CLint at 1 µM [6]: 10 µL/min/mg
IC50 (Cytochrome P450 2C8): 970 nM
IC50 (Cytochrome P450 2C9): 2000 nM
IC50 (Cytochrome P450 2C19): 3700 nM
Structure (SMILES): CCC(=O)N(Cc1cccc(O)c1)c1cc(F)cc(-c2nnn[nH]2)c1

Ki [1]: 4 nM
Structure (SMILES): CS(=O)(=O)c1ccc(CN(C(=O)c2cccnc2)c2cc(F)cc(-c3nnn[nH]3)c2)cc1

Ki [1]: 7.6 nM
Structure (SMILES): CCC(=O)N(Cc1ccc(OC)cc1)c1cc(F)cc(-c2nnn[nH]2)c1

Ki [1]: 7 nM
microsomal CLint at 1 µM [5]: > 1000 µL/min/mg
microsomal CLint at 1 µM [6]: 125 µL/min/mg
IC50 (Cytochrome P450 2C8): 570 nM
IC50 (Cytochrome P450 2C9): 640 nM
IC50 (Cytochrome P450 2C19): 680 nM
Structure (SMILES): CCCCC(=O)N(Cc1ccc2c(c1)OCCO2)c1cccc(-c2nnn[nH]2)c1

Ki [1]: 5.2 nM
Structure (SMILES): CCC(=O)N(Cc1ccc(S(=O)(=O)C(F)(F)F)cc1)c1cc(F)cc(-c2nnn[nH]2)c1

Ki [1]: 140 nM
Structure (SMILES): C#Cc1cccc(CN(C(C)=O)c2cc(-c3nnn[nH]3)ccc2F)c1

From ChEMBL document CHEMBL2034935, “Discovery of a Novel Series of CRTH2 (DP2) Receptor Antagonists Devoid of Carboxylic Acids” (ACS Med Chem Lett, 2011)
